Results as given in patent publication EP0504184B1, “ACTIVE AGENT AGAINST RETROVIRUS GROUP VIRUSES, COMPOSITIONS CONTAINING SAME AND THEIR USE” (PREVISAN S.A., priority 1989, dated 1991).

Legend:
virus VIH-1 = assay: Infectivity of pretreated HIV-1 virus for the Supt-1 line (p24 antigen in cell lysates, optical density; phase-contrast microscopy); format: cell-based; details: for multiplication du virus VIH-1 dans les cellules Supt-1: after 1, 10 and 30 minutes incubation with the agent at ordinary temperature; for Mesure d'infectivité du virus VIH-1 (D.O.492): p24 in Supt-1 lysates
Text: (§1) Ces essais comprennent comme matériel de départ : • de la N, N'-dichloroazodicarbonamidine (chloroazodine) à 95 % pure. La pureté a été examinée par chromatographie en couche mince et par un test de carbone-hydrogène (v. BRAZ G.I. et cons., J. Applied Chem. (USSR) 17,565-9 (1944)). • un surnageant de cultures de cellules (Molt-3) continuellement productrices de virus VIH-1. Le surnageant viral utilisé a une activité de transcriptase inverse de 1 x 10^6 cpm/ml. • des cellules d'une lignée T humaine continue de phénotype T4 (Supt-1) cultivée en milieu RPMI, additionné de 10 % de sérum de veau foetal et de 1 % de glutamine.
L' efficacité de la chloroazodine va être étudiée à deux niveaux : • a) action sur l'infectivité du virus VIH-1 pour la lignée Supt-1. • b) action sur l'intégration du génome viral dans l'ADN chromosomial des cellules Supt-1.
On fait incuber des préparations virales de VIH-1 à haut titre en présence de dilutions de chloroazodine de 1/1500 et de 1/3000 et pendant différents temps d'incubation. Pendant 30 minutes à 37°C, on traite préalablement les cellules Supt-1 par 10 µg/ml de polybrène, puis on les inocule avec les préparations de virus traités. On prévoit comme témoins, des cellules non inoculées, et des cellules inoculées par une préparation de virus non traités.
On détermine ensuite l'infectivité, à chaque passage cellulaire, de ces préparations en suivant la production virale (mesure de l'antigène p24 exprimé) dans les lysats cellulaires solubilisés des cellules Supt-1 examinées.
Les mesures du pouvoir infectieux du virus VIH-1 après incubation avec de la chloroazodine ressortent des tableaux 1 à 3 suivants, ainsi que des figures 1 à 3 qui correspondent aux tableaux 1 à 3. Sur ces figures, on trouve en ordonnée la densité optique (D.O.) et en abscisse le nombre de jours après l'infection. Le trait plein représente le témoin non traite, le trait interrompu la dilution de 1/1500 de chloroazodine, et le trait pointillé la dilution de 1/3000 de chloroazodine.

lymphocytes infectés = assay: Mortality of HIV-1 infected human peripheral blood lymphocytes with chloroazodine; format: cell-based, humains; details: for Nombre de cellules mortes / Nombre de cellules vivantes: HIV-1 infected lymphocytes + chloroazodine 1/3000
Text: (§2) Des lymphocytes humains provenant du sang périphérique de donneurs séro-négatifs (PBL) sont infectés par du VIH-1 provenant du surnageant de cellules Molt-3, c'est-à-dire de cellules continuellement productrices de ces virus.
Au jour 8 de l'infection, celle-ci est contrôlée par l'expression de l'antigène p 24 (Test Elisa, voir Exemple 4).
(§3) Quatre populations cellulaires sont étudiées quant à leur mortalité : • 1 des lymphocytes normaux en culture (Témoin A). • 2 des lymphocytes normaux en présence de chloroazodine 1/3000. • 3 des lymphocytes infectés non traités (Témoin B). • 4 des lymphocytes infectés, en présence de chloroazodine 1/3000. Tableau 4

lymphocytes normaux = format: cell-based, humains
Text: as §2, §3

cellules Supt-1 = assay: Toxicity test of chloroazodine towards Supt-1 cells (cell viability); format: cell-based, humaine
Text: as §1
Essai de toxicité de la chloroazodine vis-à-vis des cellules Supt-1.
La chloroazodine à la dilution de 1/500, ce qui correspond à 2 mg/ml, est toxique pour les cellules Supt-1.

[1] = test system: virus VIH-1 dans des lymphocytes humains infectés; assay: p24 antigen of treated HIV-1 infected human lymphocytes (optical density); format: cell-based; details: chloroazodine 1/3000
Text: On a reproduit l'expérience de l'exemple 7, mais avec des lymphocytes humains infectés par du VIH-1. La chloroazodine a été utilisée à la dose de 1/3000 pendant 1 heure, 3 heures et 6 heures sur les cellules infectées. Tableau 6
Afin de conserver un nombre suffisant de lymphocytes vivants il a fallu limiter l'expérimentation à 6 heures.

provirus VIH-1 = assay: Integration of the viral genome into chromosomal DNA of Supt-1 cells (PCR of gag, LTR, env; hybridisation with P32 probes); format: cell-based; details: for provirus VIH-1 dans les cellules Supt-1: hybridisation with P32 probes for gag, LTR, env
Text: Intégration du génome viral dans l'ADN chromosomial des cellules Supt-1.
Par amplification génétique grâce à une polymérase thermostable, on met en évidence la présence des gènes "gag", "LTR" et "env" du provirus VIH-1. Cette technique est appelée P.C.R. (Polymerase Chain Reaction) (CHIN-YIH OU et cons., Sciences, 239, 295-297, 1988).
Cette technique est appliquée pour la détection du provirus VIH-1 dans le génome des cellules Supt-1 inoculées par du virus VIH-1 incubé avec de la chloroazodine, comme décrit dans l'exemple 4.

SMILES: NC(N=NC(N)=NCl)=NCl [chloroazodine, N, N'-dichloroazodicarbonamidine]
- multiplication du virus VIH-1 dans les cellules Supt-1 (virus VIH-1; dilution 1/1500): empêche totalement le virus VIH-1 de se multiplier
- multiplication du virus VIH-1 dans les cellules Supt-1 (virus VIH-1; dilution 1/3000): empêche totalement le virus VIH-1 de se multiplier
- temps pour l'éradication totale des virus (virus VIH-1; low concentration, in organic medium, conclusion from examples 3 to 5): ≤ 1 min
- effet cytopathogène (virus VIH-1; phase-contrast microscopy, Supt-1 cells inoculated with virus pretreated with chloroazodine (control virus: syncytia from day 14)): aucun effet cytopathogène
- Mesure d'infectivité du virus VIH-1 (D.O.492) (virus VIH-1; virus incubated 1 minute with chloroazodine 1/1500, 10 days after infection): 0,174 ± 0,002
- Mesure d'infectivité du virus VIH-1 (D.O.492) (virus VIH-1; virus incubated 1 minute with chloroazodine 1/1500, 14 days after infection): 0,175 ± 0,016
- Mesure d'infectivité du virus VIH-1 (D.O.492) (virus VIH-1; virus incubated 1 minute with chloroazodine 1/1500, 17 days after infection): 0,152 ± 0,016
- Mesure d'infectivité du virus VIH-1 (D.O.492) (virus VIH-1; virus incubated 1 minute with chloroazodine 1/1500, 21 days after infection): 0,183 ± 0,026
- Mesure d'infectivité du virus VIH-1 (D.O.492) (virus VIH-1; virus incubated 1 minute with chloroazodine 1/1500, 24 days after infection): 0,180 ± 0,008
- Mesure d'infectivité du virus VIH-1 (D.O.492) (virus VIH-1; virus incubated 1 minute with chloroazodine 1/3000, 10 days after infection): 0,173 ± 0,009
- Mesure d'infectivité du virus VIH-1 (D.O.492) (virus VIH-1; virus incubated 1 minute with chloroazodine 1/3000, 14 days after infection): 0,149 ± 0,002
- Mesure d'infectivité du virus VIH-1 (D.O.492) (virus VIH-1; virus incubated 1 minute with chloroazodine 1/3000, 17 days after infection): 0,172 ± 0,016
- Mesure d'infectivité du virus VIH-1 (D.O.492) (virus VIH-1; virus incubated 1 minute with chloroazodine 1/3000, 21 days after infection): 0,202 ± 0,003
- Mesure d'infectivité du virus VIH-1 (D.O.492) (virus VIH-1; virus incubated 1 minute with chloroazodine 1/3000, 24 days after infection): 0,166 ± 0,004
- Mesure d'infectivité du virus VIH-1 (D.O.492) (virus VIH-1; virus incubated 10 minutes with chloroazodine 1/1500, 10 days after infection): 0,146 ± 0,004
- Mesure d'infectivité du virus VIH-1 (D.O.492) (virus VIH-1; virus incubated 10 minutes with chloroazodine 1/1500, 14 days after infection): 0,151 ± 0,006
- Mesure d'infectivité du virus VIH-1 (D.O.492) (virus VIH-1; virus incubated 10 minutes with chloroazodine 1/1500, 17 days after infection): 0,165 ± 0,013
- Mesure d'infectivité du virus VIH-1 (D.O.492) (virus VIH-1; virus incubated 10 minutes with chloroazodine 1/1500, 21 days after infection): 0,188 ± 0,016
- Mesure d'infectivité du virus VIH-1 (D.O.492) (virus VIH-1; virus incubated 10 minutes with chloroazodine 1/1500, 24 days after infection): 0,180 ± 0,008
- Mesure d'infectivité du virus VIH-1 (D.O.492) (virus VIH-1; virus incubated 10 minutes with chloroazodine 1/3000, 10 days after infection): 0,202 ± 0,021
- Mesure d'infectivité du virus VIH-1 (D.O.492) (virus VIH-1; virus incubated 10 minutes with chloroazodine 1/3000, 14 days after infection): 0,146 ± 0,010
- Mesure d'infectivité du virus VIH-1 (D.O.492) (virus VIH-1; virus incubated 10 minutes with chloroazodine 1/3000, 17 days after infection): 0,157 ± 0,005
- Mesure d'infectivité du virus VIH-1 (D.O.492) (virus VIH-1; virus incubated 10 minutes with chloroazodine 1/3000, 21 days after infection): 0,182 ± 0,018
- Mesure d'infectivité du virus VIH-1 (D.O.492) (virus VIH-1; virus incubated 10 minutes with chloroazodine 1/3000, 24 days after infection): 0,166 ± 0,004
- Mesure d'infectivité du virus VIH-1 (D.O.492) (virus VIH-1; virus incubated 30 minutes with chloroazodine 1/1500, 10 days after infection): 0,185 ± 0,008
- Mesure d'infectivité du virus VIH-1 (D.O.492) (virus VIH-1; virus incubated 30 minutes with chloroazodine 1/1500, 14 days after infection): 0,142 ± 0,010
- Mesure d'infectivité du virus VIH-1 (D.O.492) (virus VIH-1; virus incubated 30 minutes with chloroazodine 1/1500, 17 days after infection): 0,176 ± 0,004
- Mesure d'infectivité du virus VIH-1 (D.O.492) (virus VIH-1; virus incubated 30 minutes with chloroazodine 1/1500, 21 days after infection): 0,194 ± 0,007
- Mesure d'infectivité du virus VIH-1 (D.O.492) (virus VIH-1; virus incubated 30 minutes with chloroazodine 1/1500, 24 days after infection): 0,163 ± 0,003
- Mesure d'infectivité du virus VIH-1 (D.O.492) (virus VIH-1; virus incubated 30 minutes with chloroazodine 1/3000, 10 days after infection): 0,205 ± 0,013
- Mesure d'infectivité du virus VIH-1 (D.O.492) (virus VIH-1; virus incubated 30 minutes with chloroazodine 1/3000, 14 days after infection): 0,176 ± 0,005
- Mesure d'infectivité du virus VIH-1 (D.O.492) (virus VIH-1; virus incubated 30 minutes with chloroazodine 1/3000, 17 days after infection): 0,174 ± 0,015
- Mesure d'infectivité du virus VIH-1 (D.O.492) (virus VIH-1; virus incubated 30 minutes with chloroazodine 1/3000, 21 days after infection): 0,169 ± 0,000
- Mesure d'infectivité du virus VIH-1 (D.O.492) (virus VIH-1; virus incubated 30 minutes with chloroazodine 1/3000, 24 days after infection): 0,172 ± 0,031
- Nombre de cellules mortes (lymphocytes infectés; duration 1 min): 31
- Nombre de cellules vivantes (lymphocytes infectés; duration 1 min): 17
- Nombre de cellules mortes (lymphocytes infectés; duration 10 min): 34
- Nombre de cellules vivantes (lymphocytes infectés; duration 10 min): 14
- Nombre de cellules mortes (lymphocytes infectés; duration 30 min): 39
- Nombre de cellules vivantes (lymphocytes infectés; duration 30 min): 21
- Nombre de cellules mortes (lymphocytes infectés; duration 180 min): 20
- Nombre de cellules vivantes (lymphocytes infectés; duration 180 min): 8
- toxicité sélective pour des cellules infectées (lymphocytes infectés; conclusion from comparison of infected and normal lymphocytes, chloroazodine 1/3000): toxicité sélective de la chloroazodine pour des cellules infectées
- différences entre les témoins A et B et les lymphocytes sains + chloroazodine (lymphocytes normaux): non significatives
- toxicité vis-à-vis des cellules Supt-1 (cellules Supt-1; dilution 1/500 (2 mg/ml)): toxique
- viabilité cellulaire (cellules Supt-1) (cellules Supt-1; dilution 1/1500 (660 µg/ml)): ne diminuent par contre pas la viabilité cellulaire
- viabilité cellulaire (cellules Supt-1) (cellules Supt-1; dilution 1/3000 (330 µg/ml)): ne diminuent par contre pas la viabilité cellulaire
- Mesure du pouvoir infectieux des virus VIH-1 dans des lymphocytes humains infectés (densité optique) ([1]; treatment 1 hour, 4 days after treatment): 0,170
- Mesure du pouvoir infectieux des virus VIH-1 dans des lymphocytes humains infectés (densité optique) ([1]; treatment 1 hour, 7 days after treatment): 0,170
- Mesure du pouvoir infectieux des virus VIH-1 dans des lymphocytes humains infectés (densité optique) ([1]; treatment 1 hour, 11 days after treatment): 0,114
- Mesure du pouvoir infectieux des virus VIH-1 dans des lymphocytes humains infectés (densité optique) ([1]; treatment 3 hours, 4 days after treatment): 0,197
- Mesure du pouvoir infectieux des virus VIH-1 dans des lymphocytes humains infectés (densité optique) ([1]; treatment 3 hours, 7 days after treatment): 0,158
- Mesure du pouvoir infectieux des virus VIH-1 dans des lymphocytes humains infectés (densité optique) ([1]; treatment 3 hours, 11 days after treatment): 0,095
- Mesure du pouvoir infectieux des virus VIH-1 dans des lymphocytes humains infectés (densité optique) ([1]; treatment 6 hours, 4 days after treatment): 0,192
- Mesure du pouvoir infectieux des virus VIH-1 dans des lymphocytes humains infectés (densité optique) ([1]; treatment 6 hours, 7 days after treatment): 0,203
- Mesure du pouvoir infectieux des virus VIH-1 dans des lymphocytes humains infectés (densité optique) ([1]; treatment 6 hours, 11 days after treatment): 0,078
- oligonucléotides amplifiés et visibles aux UV (provirus VIH-1; PCR, ethidium bromide): apparaissent uniquement dans les tubes à essais qui correspondent à une inoculation par du virus VIH-1 non traité à la chloroazodine
- provirus VIH-1 dans les cellules Supt-1 (provirus VIH-1; virions treated at dilution 1/1500): absence totale de provirus VIH-1
- provirus VIH-1 dans les cellules Supt-1 (provirus VIH-1; virions treated at dilution 1/3000): absence totale de provirus VIH-1
